Data from patent US20110092544A1, “FUNGICIDAL PYRIDINES” (E.I. DU PONT DE nemours and company, priority 2008, published 2011).

How the values were obtained:
Assay type in all cases: in vivo
[1] = tested on: Erysiphe graminis f. sp. tritici; assay: Test A: wheat powdery mildew, preventive spray on wheat seedlings, visual disease rating
Outline: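 Acetone/water (50/50) suspension with 250 ppm surfactant sprayed to run-off on wheat seedlings (200 ppm ≈ 500 g/ha); inoculated next day with E. graminis spore dust. Incubated 8 days at 20° C, then visually rated 0–100% disease control versus untreated controls; tests at 200 ppm or 40 ppm.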

[2] = tested on: Puccinia recondite f. sp. tritici; assay: Test B: wheat leaf rust, preventive spray on wheat seedlings, visual disease rating
Outline: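 Wheat seedlings were sprayed to run-off with compound suspension, 200 ppm (≈500 g/ha) or 40 ppm where marked, containing surfactant in acetone/water. Inoculation with Puccinia recondita spores followed one day later, then 24 h in saturated humidity at 20° C and 7 days at 20° C. Disease control was rated visually, 0–100% versus controls.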

[3] = tested on: Septoria tritici; assay: Test C: wheat leaf blotch, preventive spray on wheat seedlings, visual disease rating
Outline: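 Wheat seedlings sprayed to run-off with compound in acetone/water plus 250 ppm surfactant at 200 ppm (≈500 g/ha), or 40 ppm where marked; inoculated with Septoria tritici next day. Held saturated at 20 °C for 48 h, then 19 days at 20 °C; disease control rated visually 0–100 versus controls.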

[4] = tested on: Septoria nodorum; assay: Test D: wheat glume blotch, preventive spray on wheat seedlings, visual disease rating
Outline: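 Compounds in 3% acetone, then 50/50 acetone–water with 250 ppm Trem 014, sprayed to run-off at 200 ppm (500 g/ha; some at 40 ppm) one day before spore inoculation. Held 48 h saturated at 20 °C, then 7 days at 20 °C; visual rating as % disease control vs untreated (0–100).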

[5] = tested on: Alternaria solani; assay: Test E: tomato early blight, preventive spray on tomato seedlings, visual disease rating
Outline: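 Seedlings sprayed to run-off with compound in acetone/water plus 250 ppm Trem 014 (200 ppm ≈ 500 g/ha), inoculated with spores next day. Held 48 h saturated at 27 °C, then 5 days at 20 °C; visual rating 0–100% disease control relative to controls.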

[6] = tested on: Botrytis cinerea; assay: Test F: tomato botrytis, preventive spray on tomato seedlings, visual disease rating
Outline: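 Tomato seedlings sprayed to run-off with compound suspended in acetone/water (50/50) plus 250 ppm Trem 014, at 200 ppm (≈500 g/ha) or 40 ppm where marked. Inoculated next day with B. cinerea spores, 48 h saturated atmosphere at 20 °C, then 3 days at 24 °C. Visual rating, 0–100% disease control relative to controls.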

[7] = 40 ppm (compound number followed by *)
[8] = 200 ppm, 100 = 100% disease control, 0 = no control

Structure (SMILES) | Test A rating (% disease control) [1, 7] [%] | Test B rating (% disease control) [2, 7] [%] | Test C rating (% disease control) [3, 7] [%] | Test D rating (% disease control) [4, 7] [%] | Test E rating (% disease control) [5, 7] [%] | Test F rating (% disease control) [6, 7] [%] | Test A rating (% disease control) [1, 8] [%] | Test B rating (% disease control) [2, 8] [%] | Test C rating (% disease control) [3, 8] [%] | Test D rating (% disease control) [4, 8] [%] | Test E rating (% disease control) [5, 8] [%] | Test F rating (% disease control) [6, 8] [%] | further results
C=C(C)c1cnc(C)c(-c2c(F)ccc(F)c2F)c1-c1cc(OC)cc(OC)c1 [Compound 77] | 100 | 99 | 92 | 0 | 99 | 84 | – | – | – | – | – | – | –
COc1cc(OC)cc(-c2c(C(C)O)cnc(C)c2-c2c(F)ccc(OC)c2F)c1 (stereo not drawn) [Compound 116] | 94 | 89 | 95 | 0 | 99 | 99 | – | – | – | – | – | – | –
COc1cc(OC)cc(-c2c(C(C)(C)OC(C)=O)cnc(C)c2-c2c(F)cc(F)cc2F)c1 [Compound 102] | – | – | – | – | – | – | 98 | 92 | 97 | 0 | 91 | 98 | –
COc1cc(OC)cc(-c2c(Cn3ccc(C(F)(F)F)n3)cnc(C)c2-c2c(F)cc(F)cc2F)c1 [Compound 108] | – | – | – | – | – | – | 64 | 85 | 71 | 0 | 0 | 87 | –
COc1cc(OC)cc(-c2c(C(C)CO)cnc(C)c2-c2c(F)cc(OC)cc2F)c1 (stereo not drawn) [Compound 92] | 76 | 99 | 96 | 82 | 100 | 94 | – | – | – | – | – | – | –
COc1cc(OC)cc(-c2c(CN3CCCCC3)cnc(C)c2-c2c(F)cc(F)cc2F)c1 [Compound 111] | – | – | – | – | – | – | 93 | 97 | 91 | 0 | 0 | 99 | –
COc1cc(OC)cc(-c2c(C(C)(C)O)cnc(C)c2-c2c(F)ccc(F)c2F)c1 [Compound 69] | – | – | – | – | – | – | 99 | 100 | 94 | 86 | 100 | 91 | –
COc1ccc(-c2c(C)ncc(C(C)C)c2-c2cc(OC)cc(OC)c2)cc1 [Compound 65] | – | – | – | – | – | – | 80 | 98 | 96 | 0 | 100 | 99 | –
COc1cc(OC)cc(-c2c(C(C)=O)cnc(C)c2-c2c(F)ccc(OC)c2F)c1 [Compound 105] | – | – | – | – | – | – | 100 | 99 | 93 | 0 | 0 | 98 | –
COc1cc(OC)c(Cl)c(-c2c(-c3ccccc3F)cnc(C)c2-c2c(F)cc(F)cc2F)c1Cl [Compound 136] | 0 | 74 | 40 | 0 | 0 | 48 | – | – | – | – | – | – | –
C=C(C)c1cnc(C)c(-c2c(F)cc(OC)cc2F)c1-c1cc(OC)cc(OC)c1 [Compound 74] | – | – | – | – | – | – | 100 | 100 | 98 | 100 | 100 | 98 | –
COc1cc(OC)cc(-c2c(-c3c(F)cc(F)cc3F)cnc(Cl)c2-c2c(F)cc(F)cc2F)c1 [Compound 80] | – | – | – | – | – | – | 95 | 97 | 57 | 0 | 64 | 0 | –
Cc1ncc(-c2ccccc2F)c(-c2cc(O)cc(O)c2)c1-c1ccc(F)cc1 [Compound 100] | – | – | – | – | – | – | 76 | 89 | 76 | 0 | 0 | 100 | –
COc1cc(OC)cc(-c2c(C(C)(C)O)cnc(C)c2-c2c(F)cc(OC)cc2F)c1 [Compound 72, 5-(2,6-difluoro-4-methoxyphenyl)-4-(3,5-dimethoxyphenyl)-α,α,6-trimethyl-3-pyridinemethanol] | – | – | – | – | – | – | – | – | – | – | – | – | pest or weed control at 200 ppm ([1]; Blumeria graminis, 192 h, 200 ppm, 100 = 100% disease control, 0 = no control): 100%; pest or weed control at 200 ppm ([2]; 192 h, 200 ppm, 100 = 100% disease control, 0 = no control): 100%; pest or weed control at 200 ppm ([3]; Zymoseptoria tritici, 504 h, 200 ppm, 100 = 100% disease control, 0 = no control): 95%; pest or weed control at 200 ppm ([4]; Parastagonospora nodorum, 216 h, 200 ppm, 100 = 100% disease control, 0 = no control): 100%; pest or weed control at 200 ppm ([5]; Alternaria solani, 168 h, 200 ppm, 100 = 100% disease control, 0 = no control): 100%; pest or weed control at 200 ppm ([6]; Botrytis cinerea, 120 h, 200 ppm, 100 = 100% disease control, 0 = no control): 99%
COc1cc(OC)cc(-c2c(C3CCOCC3)cnc(C)c2-c2ccc(F)cc2)c1 [Compound 59] | – | – | – | – | – | – | 79 | 100 | 97 | 92 | 100 | 100 | –
COc1cc(OC)cc(-c2c(C(C)=NO)cnc(C)c2-c2c(F)cc(F)cc2F)c1 (single isomer, unassigned) [Compound 117] | 93 | 100 | 99 | 82 | 99 | 99 | – | – | – | – | – | – | –
COc1ccc(-c2c(C)ncc(C(C)(O)CO)c2-c2cc(OC)cc(OC)c2)cc1 (single isomer, unassigned) [Compound 83] | – | – | – | – | – | – | 95 | 99 | 95 | 0 | 99 | 54 | –
COc1cc(OC)cc(-c2c(C)cnc(C)c2-c2c(F)cc(F)cc2F)c1 [Compound 129] | 99 | 100 | 99 | 60 | 66 | 99 | – | – | – | – | – | – | –
Cc1cnc(C)c(-c2c(F)cccc2F)c1-c1ccc(Cl)cc1 [Compound 144] | 0 | 0 | 0 | 0 | 0 | 45 | – | – | – | – | – | – | –
COc1cc(OC)cc(-c2c(C(N)=O)cnc(C)c2-c2c(F)cc(F)cc2F)c1 [Compound 120] | 0 | 91 | 87 | 0 | 47 | 79 | – | – | – | – | – | – | –
COc1cc(OC)cc(-c2c(C(C)C#N)cnc(C)c2-c2c(F)cc(F)cc2F)c1 (stereo not drawn) [Compound 125] | 96 | 99 | 96 | 90 | 99 | 100 | – | – | – | – | – | – | –
COc1cc(OC)cc(-c2c(-c3ccccc3)cnc(C)c2-c2c(F)cc(F)cc2F)c1 [Compound 121, 4-(3,5-dimethoxyphenyl)-2-methyl-5-phenyl-3-(2,4,6-trifluorophenyl)pyridine] | – | – | – | – | – | – | – | – | – | – | – | – | pest or weed control at 40 ppm ([1]; Blumeria graminis, 192 h, 40 ppm (compound number followed by *)): 99%; pest or weed control at 40 ppm ([2]; 192 h, 40 ppm (compound number followed by *)): 100%; pest or weed control at 40 ppm ([3]; Zymoseptoria tritici, 504 h, 40 ppm (compound number followed by *)): 99%; pest or weed control at 40 ppm ([4]; Parastagonospora nodorum, 216 h, 40 ppm (compound number followed by *)): 94%; pest or weed control at 40 ppm ([5]; Alternaria solani, 168 h, 40 ppm (compound number followed by *)): 99%; pest or weed control at 40 ppm ([6]; Botrytis cinerea, 120 h, 40 ppm (compound number followed by *)): 100%
